Assay [1] relates to THP-1. The experiment in a line: Concentration required to inhibit production of LTC4 from THP-1 cells stimulated with A-23187. Type of assay: functional, cell-based. As to conditions: Homo sapiens.
Assay [2] has as its system THP-1. The experiment in a line: Concentration required to inhibit production of arachidonic acid from THP-1 cells stimulated with A-23187. As to conditions: Homo sapiens. Format: functional, cell-based.
For assay [3], the species on record is Homo sapiens. Nature of the assay: Concentration required to inhibit production of LTB4 from whole blood stimulated with A-23187. Type of assay: functional, organism-based.
The species named for assay [4] is Homo sapiens. The experiment in a line: Concentration required to inhibit production of LDH from whole blood stimulated with A-23187. Type of assay: functional, organism-based.
Assay [5] is filed under the species Homo sapiens. Nature of the assay: Concentration required to inhibit production of TXB2 from whole blood stimulated with A-23187. Type of assay: functional, organism-based.
The species entered for assay [6] is Homo sapiens. Nature of the assay: Concentration required to inhibit production of arachidonic acid from whole blood stimulated with A-23187. Format: functional, organism-based.
For assay [7], the system named is THP-1. The experiment in a line: Concentration required to inhibit production of PGE-2 from THP-1 cells stimulated with A-23187. As to conditions: Homo sapiens. Type of assay: functional, cell-based.
For assay [8], the species on record is Homo sapiens. Nature of the assay: Concentration required to inhibit production of PGE-2 from whole blood stimulated with A-23187. Type of assay: functional, organism-based.

By pIC50 is commonly meant the IC50 on a negative log10 scale, so that one unit is a factor of ten.

pIC50: −log10 of the molar value.

As to `CCCCC/C=C\C/C=C\C/C=C\C/C=C\CCCC(=O)O` [ARACHIDONIC ACID], the negative-log IC50 (pIC50) in assay [1] is 8.33; in assay [2], 4.40; in assay [3], 6.03; in assay [4] it was < 5.00; in assay [5], < 5.00; in assay [6] it was < 5.00. In addition, the figures for the pIC50 in assay [7] and in assay [8] were 6.74 and < 5.00, respectively.
Turning to `CCCCC/C=C\C/C=C\C/C=C\C/C=C\CCCC(=O)C(F)(F)F` [ARACHIDONYL TRIFLUOROMETHYLKETONE], the negative-log IC50 (pIC50) is 4.39 in assay [1]; 4.07 in assay [2]; < 5.00 in assay [3]; < 5.00 in assay [4]; < 5.00 in assay [5]; < 5.00 in assay [6]. Also, in assay [8], the negative logarithm of the IC50 (pIC50) was < 5.00.
As for `COc1ccc2c(c1)c(CC(=O)O)c(C)n2C(=O)c1ccc(Cl)cc1` [INDOMETHACIN], the pIC50 in assay [1] is < 5.00; in assay [2], < 5.00; in assay [3], < 5.00; in assay [4], < 5.00; in assay [5], 6.44; in assay [6], < 5.00. This compound had a pIC50 in assay [8] of 6.59.

Source of the values: ChEMBL document CHEMBL1134826, “Pyrrolidine inhibitors of human cytosolic phospholipase A2. Part 2: synthesis of potent and crystallized 4-triphenylmethylthio derivative 'pyrrophenone'” (Bioorg Med Chem Lett, 2001).
